Data reported in article PMC7904827 (Scientific Reports, 2021).
Where a name gives a salt, the structure may show the parent alone. Read-outs that look alike come from different tables or passages of the source.

Columns and labels:
[1] = set-up: method as in PMID 29273587; details: cited from earlier work
[2] = system: neonatal ventricular cardiomyocytes (NVCMs); details: same assay; cited from earlier work
[3] = Approximate solubility in distilled water at room temperature; format: physicochemical; details: for solubility: distilled water, room temperature
Protocol: The syntheses of the target prodrugs were performed according to a known three-step procedure with some modifications. Target prodrugs GK-667, GK-678 and GK-691 were obtained in 34%, 37% and 17% overall yields, respectively. […] The resulting solutions remained physically stable for at least two hours at room temperature.

[4] = Process stability in untreated plasma; format: in vitro ADME, rabbit; details: 23 °C, 20 min
Protocol: Linearity was tested within the concentration range of 0.2 – 100 μM for all compounds in DMEM, the buffer and plasma and 10-100 pmol/106cells in NVCMs (method I). For method II, the concentration ranges 0.01-15 μM and 0.01-1 μM were used for determination of ICRF-193 and ICRF-193met in plasma, respectively. Unweighted and weighted (1/x and 1/x2) linear regression was applied to obtain the best fitting calibration model. […]
(§1) Stability of the analytes was examined at low and high concentrations. Process s tability (n=3) in plasma was tested for 20 min at either laboratory temperature (23 °C) or on ice (4 °C, only for GK-667). Post-preparation stability was examined for 8 to 10 h in an autosampler (8 °C, n=3) for all treated matrices. […]

[5] = In vivo pharmacokinetic study of GK-667 in rabbits, noncompartmental analysis; set-up: species or system rabbit
Protocol: GK-667 was freshly dissolved in saline (5 mg/mL) before each administration. New Zealand White male rabbits (n = 6, ∼3.8 kg) received GK-667 (5 mg/kg) administered as a single slow (2 min) intravenous dose bolus to the ear marginal vein. Blood (∼1 mL) was sampled from veins on the contralateral ear at selected time points after drug administration (5 min to 9 h) into BD Vacutainers (BD Biosciences, Plymouth, UK) containing lithium heparin. Collected blood samples were immediately centrifuged (2 min, 3000 rpm, 4 °C), and plasma samples were harvested directly.
Plasma samples taken 0 to 20 min after GK-667 administration were immediately processed by the addition of formic acid and precipitation with ice-cold methanol. The supernatants were then analyzed for all analytes, including the intact prodrug. This was essential to ensure the appropriate determination of highly labile GK-667 at the first sampling intervals, and the whole procedure was validated for this purpose. […] Thus, all following plasma samples were immediately shock-frozen in liquid nitrogen and stored at -80 °C until analysis.
For drug administration and blood sampling, light anesthesia was induced in rabbits with a mixture of ketamine (25 mg/kg, i.m.) and midazolam (2.5 mg/kg, i.m.); sedation was then maintained with midazolam when needed. The blood withdrawn from the animals was compensated with an appropriate volume of sterile saline. All in vivo experiments and procedures were approved and supervised by the Animal Welfare Committee of the Faculty of Medicine in Hradec Kralove (Charles University), and the experiments were performed in compliance with the ARRIVE guidelines.
Standard noncompartmental analysis was performed using Kinetica software (version 4.0, Thermo Fisher Scientific Inc., USA). The population parameter estimation for nonlinear mixed effect models was conducted using Monolix version 2019R2 software (Antony, France: Lixoft SAS, 2019, http://lixoft.com/products/monolix/). The stochastic approximation expectation maximization (SAEM) algorithm coupled with Markov Chain Monte Carlo (MCMC) without the use of approximations (linearization) was used for the estimation of the likelihood. For evaluation of the goodness-of-fit, the following plots were assessed: observed versus individual predicted concentrations, weighted residuals versus time and weighted residuals versus predictions. Individual parameter values were obtained as empirical Bayes estimates. A visual predictive check with 1000 simulated data sets was performed.

[6] = Population pharmacokinetic analysis in rabbits; format: in vivo, rabbit; details: population median
Excerpt: All model parameters of ICRF-193 and ICRF-193met could not be simultaneously estimated by stochastic approximation expectation maximization (SAEM) in one step. […] A maximum likelihood estimation was used to calculate the parameters CLmet, CLother, V4, and CLICRF-193met. For the remaining parameters of the parent-metabolite model (Fig. S5), a maximum a posteriori (MAP) estimation was adopted. The residual error in the population kinetic analysis was best described with a proportional model.
Standard noncompartmental analysis was performed using Kinetica software (version 4.0, Thermo Fisher Scientific Inc., USA). The population parameter estimation for nonlinear mixed effect models was conducted using Monolix version 2019R2 software (Antony, France: Lixoft SAS, 2019, http://lixoft.com/products/monolix/). […] For evaluation of the goodness-of-fit, the following plots were assessed: observed versus individual predicted concentrations, weighted residuals versus time and weighted residuals versus predictions. […]
Hydrolysis of GK-667 is very fast and the parent compound was essentially completely cleared from plasma within 10 min after injection. ICRF-193 was quantitatively dominating at the first sampling interval (5 min). […]

[7] = Post-preparation stability of the extracted analytes in autosampler (8 °C); format: physicochemical
Protocol: Linearity was tested within the concentration range of 0.2 – 100 μM for all compounds in DMEM, the buffer and plasma and 10-100 pmol/106cells in NVCMs (method I). For […]
Unweighted and weighted (1/x and 1/x2) linear regression was applied to obtain the best fitting calibration model.
Accuracy and precision were calculated at 4 levels (LLOQ, low, medium and high concentrations). Five quality control (QC) samples were used for all concentration levels. […]
as §1
plasma was tested at -80 °C and the freezing cycle was repeated twice (n=3). The buffer, DMEM, NVCMs and plasma samples containing GK -667 from in vitro studies and from first intervals of pharmacokinetic study (up to 20 min) w ere treated and analyzed immediately after […]

[8] = Freeze-thaw and storage stability in plasma at -80 °C; format: in vitro ADME, rabbit; details: for % of initial concentration, 1st freeze-thaw cycle / % of initial concentration, 2nd freeze-thaw cycle: plasma, -80 °C
Protocol: ICRF-193 and ICRF-193met in plasma, respectively. Unweighted and weighted (1/x and 1/x2) linear regression was applied to obtain the best fitting calibration model. […]
as §1
plasma was tested at -80 °C and the freezing cycle was repeated twice (n=3). […]

[9] = system: neonatal ventricular cardiomyocytes (NVCMs); experiment: Toxicity of the prodrugs alone in NVCMs (LDH release); format: cell-based, rat; set-up: key to LDH release, statistical significance compared to control: c - compared to control; P ≤ 0.01; details: prodrug alone 1–100 µM, NVCMs; n.s. or c in Fig. S2
Protocol: (§2) After 3 h, DAU solution (1.2 µM) was added to the media. After another 3 h, the medium was replaced with new (drug-free) exposure medium, and the cardiomyocytes were then kept until the end of the experiment. In addition to cytoprotective properties, the toxicity of the studied agent was also examined; this experiment was performed as described above with only the DAU addition step omitted.
(§3) Forty-five hours after the last medium exchange, a sample of medium was taken from each well to assess lactate dehydrogenase (LDH) activity[27]–[29]. For details, see the Supplementary material.
(§4) 1.5 LDH activity evaluation
(§5) The control wells were treated with lysis buffer (0.1 M potassium phosphate, 1% Triton
(§6) X-100, 1 mM DTT, 2 mM EDTA; pH 7.8; 15 min; room temperature) to measure the total
(§7) cellular LDH level (sum of the activity in the control medium and the lysate). The activity of
(§8) LDH was assayed in Tris-HCl buffer (pH 8.9) containing 35 mM sodium lactate and 5 mM
(§9) NAD+. The rate of NAD+ reduction was monitored spectrophotometrically at 340 nm for 2 min.
(§10) The slope of the linear region and molar absorption coefficient e = 6.22*10 3 M/cm were used
(§11) to calculate the LDH activity, and the data were expressed as a percentage of total L DH activity. […]

[10] = system: neonatal ventricular cardiomyocytes (NVCMs); experiment: In vitro cardioprotection bioassay against daunorubicin toxicity (LDH release); format: cell-based, rat; details: 3 h preincubation, DAU 1.2 µM, LDH release after 48 h
Protocol: NVCMs were isolated in-house from 1- to 3-day-old Wistar rats as described previously. The use of animals and experimental protocols were approved by Charles University, Faculty of Pharmacy Animal Welfare Committee. All experiments were performed in accordance with Directive 2010/63/EU on the Protection of Animals Used for Scientific Purposes and in compliance with Animal Research: Reporting of In Vivo Experiments (ARRIVE) guidelines. Newly isolated cardiomyocytes were left for 40 h to form a monolayer of spontaneously beating cardiomyocytes in seeding medium (DMEM/F12 supplemented with 10% HS, 5% FBS, 4% PYR and 1% P/S), which was then replaced with culture medium (DMEM/F12 supplemented with 5% FBS, 4% PYR and 1% P/S). The medium was replaced again after 24 h for new culture medium.
as §2, §3, §4, §5, §6, §7, §8, §9, §10, §11

[11] = ICRF-193 release from the prodrugs during incubation in DMEM (thermomixer, UHPLC-MS/MS); format: in vitro ADME; details: 100 µM, 37 °C
Protocol: All samples were spiked with the internal standards. DMEM or buffer (100 μL) was diluted with an ice-cold methanol/water mixture (20:80, v/v), mixed and analyzed. Plasma (50 μL) was precipitated with ice-cold methanol (1:5, v/v), mixed (20 s) and centrifuged (10 min, 10,000 rpm, 4 °C). NVCM pellets (4.8 × 10^6 cells) were precipitated with ice-cold methanol (250 μL), mixed (20 s), sonicated in a cold ultrasonic bath (75 s), mixed (30 s) and centrifuged (10 min, 10,000 rpm, 4 °C). The supernatants from the plasma and NVCM extractions were filtered (0.22 μm, PVDF) prior to analysis. For assay of the prodrugs, the samples were acidified with formic acid to a final concentration of 0.5%.
The samples were analyzed using two UHPLC instruments both coupled to a triple quadrupole mass spectrometer. […] Positive ionization mode was used in both methods. The analytical columns tested are characterized in the Supplementary materials.
The prodrugs (100 μM) were incubated (37 °C) in DMEM in a thermomixer (Thermomixer Comfort, Eppendorf, Germany) under gentle mixing (350 rpm) for 48 h.
From all of the above described experiments, samples were taken at predefined intervals, treated and immediately analyzed. All experiments were performed in four replicates, and the results are expressed as the mean ± SD.

[12] = DEX in the same species (rabbit)
[13] = male, New Zealand White, rabbit, plasma, iv, rabbits n = 6, GK-667 5 mg/kg i.v., NCA
[14] = rabbits n = 6, GK-667 5 mg/kg i.v., NCA

SMILES: C[C@@H](CN1CC(=O)NC(=O)C1)N1CC(=O)NC(=O)C1 [DEX, dexrazoxane]
- clearance [1, 12]: 5 mL/min/kg
- elimination half-life [1, 12]: 2.0 h
- concentrations with significant protective effects against DAU toxicity [2]: ≥ 10 µM

SMILES: C[C@H]([C@H](C)N(CC(N)=O)CC(=O)O)N(CC(N)=O)CC(=O)O [ICRF-193met]
- solubility (in words) ([3]; reason why it was not administered separately): poor solubility
- stability in untreated plasma at laboratory temperature [4]: stable
- half-life ([5]; male, New Zealand White, rabbit, plasma, iv, 5 mg/kg): 1.4 h
- Cmax ([5]; male, New Zealand White, rabbit, plasma, iv, 5 mg/kg, rabbits n = 6, GK-667 5 mg/kg i.v., NCA): 800 nM
- AUC [5, 13]: 2.7 µM·h
- AUC(0-t) [5, 13]: 2.6 µM·h
- MRT [5, 13]: 2.6 h
- k el ([5]; male, New Zealand White, rabbit, plasma, iv, rabbits n = 6, GK-667 5 mg/kg i.v., NCA, read-out: λz (converted)): 0.000144 s⁻¹
- Tmax ([5]; male, New Zealand White, rabbit, plasma, iv, rabbits, GK-667 5 mg/kg i.v., read-out: median tmax): 2 h
- AUMClast [5, 14]: 6.5 h^2∙µM
- AUMCtot [5, 14]: 7.1 h^2∙µM
- Cmax [5, 14]: 830 nM
- Tmax [5, 14]: 2 h
- V4 ([6]; distribution volume for ICRF-193met): 0.31 L/kg
- CLICRF-193met ([6]; total clearance of ICRF-193met): 2.83 mL/min/kg
- percentage of initial concentration in autosampler ([7]; extracted DMEM, 100 µM, 0 h): 101.5%
- percentage of initial concentration in autosampler ([7]; extracted DMEM, 100 µM, 8 h): 102.1%
- percentage of initial concentration in autosampler ([7]; extracted DMEM, 100 µM, 10 h): 102.7%
- percentage of initial concentration in autosampler ([7]; extracted NVCMs, 100 pmol/106 cells, 0 h): 100.0%
- percentage of initial concentration in autosampler ([7]; extracted NVCMs, 100 pmol/106 cells, 8 h): 97.7%
- percentage of initial concentration in autosampler ([7]; extracted NVCMs, 100 pmol/106 cells, 10 h): 95.0%
- percentage of initial concentration in autosampler ([7]; extracted buffer, 100 µM, 0 h): 102.3%
- percentage of initial concentration in autosampler ([7]; extracted buffer, 100 µM, 8 h): 102.0%
- percentage of initial concentration in autosampler ([7]; extracted plasma, 100 µM, 0 h): 100.4%
- percentage of initial concentration in autosampler ([7]; extracted plasma, 100 µM, 8 h): 96.5%
- percentage of initial concentration in autosampler ([7]; extracted plasma, 100 µM, 10 h): 99.1%
- degradation in plasma on storage ([8]; -80 °C for 1 month): no significant degradation
- % of initial concentration, 1st freeze-thaw cycle ([8]; initial concentration 0.05 µM): 94.1 ± 4.3%
- % of initial concentration, 2nd freeze-thaw cycle ([8]; initial concentration 0.05 µM): 91.7 ± 0.7%
- % of initial concentration, 1st freeze-thaw cycle ([8]; initial concentration 1.00 µM): 93.9 ± 5.7%
- % of initial concentration, 2nd freeze-thaw cycle ([8]; initial concentration 1.00 µM): 91.4 ± 7.0%

SMILES: C[C@H]([C@H](C)N1CC(=O)N(COC(=O)[C@@H](N)Cc2ccccc2)C(=O)C1)N1CC(=O)N(COC(=O)[C@@H](N)Cc2ccccc2)C(=O)C1 [GK-691, meso-2,3-bis(4-((S)-2-amino-3-phenylpropionyloxymethyl)-3,5-dioxopiperazin-1-yl)butane tetrahydrochloride]
- solubility [3]: ~10 mg/mL
- LDH release, statistical significance compared to control [9]: c
- lowest concentration with significant protection against DAU-induced toxicity [10]: 3 µM

SMILES: C[C@@H](CN(CC(N)=O)CC(=O)O)N(CC(N)=O)CC(=O)O [ADR-925]
- half-life of elimination ([1]; ADR-925 formed in vivo from DEX, rabbit): 2.9 h

SMILES: C[C@H](N)C(=O)OCN1C(=O)CN([C@H](C)[C@H](C)N2CC(=O)N(COC(=O)[C@H](C)N)C(=O)C2)CC1=O [GK-678, meso-2,3-bis(4-((S)-2-aminopropionyloxymethyl)-3,5-dioxopiperazin-1-yl)butane tetrahydrochloride]
- solubility [3]: ~20 mg/mL
- LDH release, statistical significance compared to control [9]: n.s.
- lowest concentration with significant protection against DAU-induced toxicity [10]: 3 µM
- prodrug degradation in DMEM [11]: fastest degradation
- AUC0–3 h of ICRF-193 concentrations ([11]; GK-667 compared with GK-678): no statistically significant differences
